From patent US20090239846A1, “Novel Compounds” (Glaxo Group Limited, priority 2005, published 2009) come the findings set out here.

Molecules are shown by their SMILES. Where a name gives a salt, the structure may show the parent alone. Read-outs that look alike come from different tables or passages of the source.

Experiment [1] deals with influx of neutrophils to the lung in LPS-challenged rats. In words: Rat LPS neutrophilia model. It is filed as in vivo. Conditions: LPS aerosol, lavage 4 hours later, in at least one of the range of conditions tested, significance p<0.05. The gist of the method: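 Rats pretreated 15 min–24 h with compound or vehicle, given intratracheally (200 ul, isoflurane anaesthesia) as suspension in various vehicles, then exposed to LPS aerosol (100 ug/ml) 15 min. BAL 4 h later; Diffquick-stained differential counts give % inhibition of neutrophils versus no-compound controls at a set concentration and pretreatment time.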

A further experiment addresses T1, Recombinant human p38α (Homo sapiens, UniProt Q16539).
T1 construct: GST; made in house
In words: Fluorescence anisotropy kinase binding assay (standard or low volume). The conditions noted are these: 12 nM p38α, 5 nM fluorescent ligand. The text has this: The concentration of kinase enzyme should preferably be >2×Kf. The concentration of fluorescent ligand required will depend on the instrumentation used, and the fluorescent and physicochemical properties. The concentration used must be lower than the concentration of kinase enzyme, and preferably less than half the kinase enzyme concentration.
The fluorescent ligand is the following compound:
[drawing 329] • which is derived from 5-[2-(4-aminomethylphenyl)-5-pyridin-4-yl-1H-imidazol-4-yl]-2-chlorophenol and rhodamine green. Recombinant human p38α was expressed as a GST-tagged protein. To activate this protein, 3.5 μM unactivated p38α was incubated in 50 mM Tris-HCl pH 7.5, 0.1 mM EGTA, 0.1% 2-mercaptoethanol, 0.1 mM sodium vanadate, 10 mM MgAc, 0.1 mM ATP with 200 nM MBP-MKK6 DD at 30 degrees for 30 mins. Following activation p38α was re-purified and the activity assessed using a standard filter-binding assay. Protocol: All components are dissolved in buffer of composition 62.5 mM HEPES, pH 7.5, 1.25 mM CHAPS, 1 mM DTT, 12.5 mM MgCl2 with final concentrations of 12 nM p38α and 5 nM fluorescent ligand. 30 μl of this reaction mixture is added to wells containing 1 μl of various concentrations of test compound (0.28 nM-16.6 μM final) or DMSO vehicle (3% final) in NUNC 384 well black microtitre plate and equilibrated for 30-60 mins at room temperature. Fluorescence anisotropy is read in Molecular Devices Acquest (excitation 485 nm/emission 535 nm). Definitions: Ki=dissociation constant for inhibitor binding • Kf=dissociation constant for fluorescent ligand binding
The concentration of kinase enzyme should preferably be 2×Kf. The concentration of fluorescent ligand required will depend on the instrumentation used, and the fluorescent and physicochemical properties. The concentration used must be lower than the concentration of kinase enzyme, and preferably less than half the kinase enzyme concentration. The fluorescent ligand is the following compound:
which is derived from 5-[2-(4-aminomethylphenyl)-5-pyridin-4-yl-1H-imidazol-4-yl]-2-chlorophenol and rhodamine green. Recombinant human p38α was expressed as a GST-tagged protein. To activate this protein, 3.5 μM unactivated p38α was incubated in 50 mM Tris-HCl pH 7.5, 0.1 mM EGTA, 0.1% 2-mercaptoethanol, 0.1 mM sodium vanadate, 10 mM MgAc, 0.1 mM ATP with 200 nM MBP-MKK6 DD at 30 degrees for 30 mins. Following activation p38α was re-purified and the activity assessed using a standard filter-binding assay. Protocol: All components are dissolved in buffer of composition 62.5 mM HEPES, pH 7.5, 1.25 mM CHAPS, 1 mM DTT, 12.5 mM MgCl2 with final concentrations of 12 nM p38α and 5 nM fluorescent ligand. […] of this reaction mixture is added to wells containing 0.1 μl of various concentrations of test compound (0.02 nM-25 μM final) or DMSO vehicle (1.7% final) in Greiner low volume 384 well black microtitre plate and equilibrated for 30-60 mins at room temperature. Fluorescence anisotropy is read in Molecular Devices Acquest (excitation 485 nm/emission 535 nm). Definitions: Ki dissociation constant for inhibitor binding • Kf=dissociation constant for fluorescent ligand binding It is noted that there are two assay formats shown above for the Fluorescence anisotropy kinase binding assay. The only difference between these two assays is the volume used and the plate type. […] The results described herein may have been performed in either assay format and are not differentiated as to which.
In general terms: Polarisation of emitted light reports the rotation of a fluorescent probe.

The subject of experiment [2] is IL-8 production by human neutrophils. Put plainly: TNF-stimulated IL-8 production from human neutrophils. The class given is cell-based. The conditions noted are these: Neutrophil, bound, read-out: IC50.
Description: TNF-Stimulated IL-8 Production from Human Neutrophils The effect of test compounds on TNF-stimulated IL8 production by human neutrophils is measured as follows. Neutrophils are prepared from blood obtained from consenting donors, using standard methods. Blood is collected in heparinized syringes and layered over histopaque (30 ml/20 ml). Following centrifugation, the red cell pellet is resuspended in PBS and purified over a dextran gradient. Red blood cells are lysed with water for 40 sec, remaining granulocytes collected by centrifugation and resuspended at 1.5×10̂6 cells/ml. Cells are added (0.5-1 ml) to 48 well plates already containing compound at 1000×final concentration in neat DMSO or 10% DMSO in RPMI1640 with 10% FBS. TNF (final concentration 100 ng/ml) is used as the stimulus. Cells incubated for approximately 20 hrs at 37° C., 5% CO2. Levels of IL-8 in the cell free supernatant are determined by sandwich ELISA, and inhibition relative to a control with DMPO but no compound is calculated.
[3] abbreviates: not more than 50% inhibition at 100 nM.

T1 sequence (Q16539 whole entry): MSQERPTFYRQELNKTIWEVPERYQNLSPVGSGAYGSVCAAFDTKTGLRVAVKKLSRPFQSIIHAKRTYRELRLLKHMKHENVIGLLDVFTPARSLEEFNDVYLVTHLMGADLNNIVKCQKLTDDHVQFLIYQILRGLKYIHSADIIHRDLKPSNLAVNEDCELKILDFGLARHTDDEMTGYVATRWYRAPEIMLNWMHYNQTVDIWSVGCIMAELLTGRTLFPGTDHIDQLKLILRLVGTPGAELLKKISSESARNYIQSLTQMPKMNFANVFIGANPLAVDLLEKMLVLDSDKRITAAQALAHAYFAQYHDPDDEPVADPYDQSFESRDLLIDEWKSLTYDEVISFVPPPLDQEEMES

With `CSc1nc(-c2cc(NC(=O)c3ccsc3)ccc2C)c2c(n1)N(c1c(F)cccc1F)C(=O)NC2` [7(c), N-{3-[8-(2,6-Difluorophenyl)-2-(methylthio)-7-oxo-5,6,7,8-tetrahydropyrimido[4,5-d]pyrimidin-4-yl]-4-methylphenyl}-3-thiophenecarboxamide], in experiment [1], the inhibition of neutrophilia entry is “inactive”. For the same compound, the “active in the assay (pIC50, p38α binding)” value (“active in the assay” below) on Recombinant human p38α is given as “active”. `Cc1ccc(C(=O)Nc2ccc(F)cc2)cc1-c1nc(NCCN(C)C)nc2c1CNC(=O)N2c1c(F)cccc1F` [8(c), 3-(8-(2,6-difluorophenyl)-2-{[2-(dimethylamino)ethyl]amino}-7-oxo-5,6,7,8-tetrahydropyrimido[4,5-d]-pyrimidin-4-yl)-N-(4-fluorophenyl)-4-methylbenzamide]: the inhibition of neutrophilia entry in experiment [1] was “statistically significant inhibition of neutrophilia”. The “active in the assay” value on Recombinant human p38α is reported as “active”. Regarding `CSc1nc(-c2cc(NC(=O)c3ccc(C)c(F)c3)ccc2C)c2c(n1)N(c1c(F)cccc1F)C(=O)NC2` [23(c), N-{3-[8-(2,6-difluorophenyl)-2-(methylthio)-7-oxo-5,6,7,8-tetrahydropyrimido[4,5-d]pyrimidin-4-yl]-4-methylphenyl}-3-fluoro-4-methylbenzamide], the inhibition of neutrophilia result in experiment [1] was “inactive”. Also, the “active in the assay” value on Recombinant human p38α is “active”. The like results for `CCCNC(=O)c1ccc(C)c(-c2nc(NCCCN(CC)CC)nc3c2CNC(=O)N3c2c(F)cccc2F)c1` [29(c), 3-[2-{[3-(diethylamino)propyl]amino}-8-(2,6-difluorophenyl)-7-oxo-5,6,7,8-tetrahydropyrimido[4,5-d]pyrimidin-4-yl]-4-methyl-N-propylbenzamide] were, in that order, “statistically significant inhibition of neutrophilia” and “active”.

With `Cc1ccc(C(=O)NC(C)C)cc1-c1nc(N(C)CCCN(C)C)nc2c1CNC(=O)N2c1c(F)cccc1F` [34(d), 3-{8-(2,6-difluorophenyl)-2-[[3-(dimethylamino)propyl](methyl)amino]-7-oxo-5,6,7,8-tetrahydropyrimido[4,5-d]pyrimidin-4-yl}-4-methyl-N-(1-methylethyl)benzamide], the inhibition of neutrophilia result in experiment [1] was “statistically nonsignificant inhibition of neutrophilia”. In addition, at Recombinant human p38α, the “active in the assay” value is “active”. Turning to `Cc1ccc(C(=O)Nc2ccc(F)cc2)cc1-c1nc(N2CCC(N3CCCC3)CC2)nc2c1CNC(=O)N2c1c(F)cccc1F` [86(c), 3-{8-(2,6-difluorophenyl)-7-oxo-2-[4-(1-pyrrolidinyl)-1-piperidinyl]-5,6,7,8-tetrahydropyrimido[4,5-d]pyrimidin-4-yl}-N-(4-fluorophenyl)-4-methylbenzamide], in experiment [1], the inhibition of neutrophilia entry was “statistically nonsignificant inhibition of neutrophilia”. In addition, on Recombinant human p38α, the “active in the assay” value is “active”. For `Cc1ccc(C(=O)Nc2ccc(F)cc2)cc1-c1nc(N2CCC(N3CCCCC3)CC2)nc2c1CNC(=O)N2c1c(F)cccc1F` [87(b), 3-[2-(1,4′-bipiperidin-1′-yl)-8-(2,6-difluorophenyl)-7-oxo-5,6,7,8-tetrahydropyrimido[4,5-d]pyrimidin-4-yl]-N-(4-fluorophenyl)-4-methylbenzamide], in experiment [1], the inhibition of neutrophilia entry is on record as “statistically nonsignificant inhibition of neutrophilia”. The “active in the assay” value on Recombinant human p38α is reported as “active”. On to `Cc1ccc(C(=O)Nc2nccs2)cc1-c1nc(NCCN(C)C)nc2c1CNC(=O)N2c1c(F)cccc1F` [118(c), 3-(8-(2,6-difluorophenyl)-2-{[2-(dimethylamino)ethyl]amino}-7-oxo-5,6,7,8-tetrahydropyrimido[4,5-d]pyrimidin-4-yl)-4-methyl-N-1,3-thiazol-2-ylbenzamide], for which the inhibition of neutrophilia result in experiment [1] is reported as “statistically significant inhibition of neutrophilia”. The “active in the assay” value on Recombinant human p38α was “active”.

By IC50 is commonly meant the concentration that gives 50% inhibition. Consider `CCN(CC)CCCNc1nc(-c2cc(C(=O)O)ccc2C)c2c(n1)N(c1c(F)cccc1F)C(=O)NC2` [228(b), 3-[2-{[3-(diethylamino)propyl]amino}-8-(2,6-difluorophenyl)-7-oxo-5,6,7,8-tetrahydropyrimido[4,5-d]pyrimidin-4-yl]-4-methylbenzoic acid], for which, in experiment [2] (setting [3]), the IC50 is greater than 100 nM. Consider `CCCNC(=O)c1ccc(C)c(-c2nc(NCCCNCC)nc3c2CNC(=O)N3c2c(F)cccc2F)c1` [230(b), 3-(8-(2,6-difluorophenyl)-2-{[3-(ethylamino)propyl]amino}-7-oxo-5,6,7,8-tetrahydropyrimido[4,5-d]pyrimidin-4-yl)-4-methyl-N-propylbenzamide trifluoroacetate], for which the IC50 in experiment [2] (setting [3]) is greater than 100 nM.

On to `Cc1ccc(C(=O)Nc2ccc(F)cc2)cc1-c1nc(N(C)CCN(C)C)nc2c1CNC(=O)N2c1c(F)cccc1F` [Example 32, 3-{8-(2,6-difluorophenyl)-2-[[2-(dimethylamino)ethyl](methyl)amino]-7-oxo-5,6,7,8-tetrahydropyrimido[4,5-d]pyrimidin-4-yl}-N-(4-fluorophenyl)-4-methylbenzamide], for which the inhibition of neutrophilia result in experiment [1] was “statistically nonsignificant inhibition of neutrophilia”. Also, the “active in the assay” value on Recombinant human p38α is “active”. Consider `Cc1ccc(C(=O)NC(C)C)cc1-c1nc(NCCCNC(C)C)nc2c1CNC(=O)N2c1c(F)cccc1F` [Example 49, 3-[8-(2,6-difluorophenyl)-2-({3-[(1-methylethyl)amino]propyl}amino)-7-oxo-5,6,7,8-tetrahydropyrimido[4,5-d]pyrimidin-4-yl]-4-methyl-N-(1-methylethyl)benzamide], for which the IC50 in experiment [2] (setting [3]) was greater than 100 nM. For the compound `Cc1ccc(C(=O)NC(C)C)cc1-c1nc(NCCCNC(C)(C)C)nc2c1CNC(=O)N2c1c(F)cccc1F` [Example 50, 3-[8-(2,6-difluorophenyl)-2-({3-[(1,1-dimethylethyl)amino]propyl}amino)-7-oxo-5,6,7,8-tetrahydropyrimido[4,5-d]pyrimidin-4-yl]-4-methyl-N-(1-methylethyl)benzamide], the IC50 in experiment [2] (setting [3]) is greater than 100 nM.

In the case of `CCCNC(=O)c1ccc(C)c(-c2nc(NCCNC(C)C)nc3c2CNC(=O)N3c2c(F)cccc2F)c1` [Example 62, 3-[8-(2,6-difluorophenyl)-2-({2-[(1-methylethyl)amino]ethyl}amino)-7-oxo-5,6,7,8-tetrahydropyrimido[4,5-d]pyrimidin-4-yl]-4-methyl-N-propylbenzamide], the IC50 in experiment [2] (setting [3]) was greater than 100 nM. In the case of `CCCNC(=O)c1ccc(C)c(-c2nc(NCCCNC(C)(C)C)nc3c2CNC(=O)N3c2c(F)cccc2F)c1` [Example 65, 3-[8-(2,6-difluorophenyl)-2-({3-[(1,1-dimethylethyl)amino]propyl}amino)-7-oxo-5,6,7,8-tetrahydropyrimido[4,5-d]pyrimidin-4-yl]-4-methyl-N-propylbenzamide], the IC50 in experiment [2] (setting [3]) is greater than 100 nM. In the case of `Cc1ccc(C(=O)NC(C)C)cc1-c1nc(N2CCC(N3CCOCC3)CC2)nc2c1CNC(=O)N2c1c(F)cccc1F` [Example 71, 3-{8-(2,6-difluorophenyl)-2-[4-(4-morpholinyl)-1-piperidinyl]-7-oxo-5,6,7,8-tetrahydropyrimido[4,5-d]pyrimidin-4-yl}-4-methyl-N-(1-methylethyl)benzamide], in experiment [2] (screened at a different top concentration), the IC50 is greater than 1 nM.
